Literature values in patent publication US20100087382A1, “Inhibitors of Hepatitis C NS3 Protease” (BOEHRINGER INGELHEIM INTERNATIONAL GMBH, priority 2007, published 2010).
Like-named read-outs stand apart in the source and are kept apart here.

Legend:
hepatitis C virus [1] = conditions: two day clinical trial, patients infected with hepatitis C virus
hepatitis C virus [2] = conditions: 28- and 14-day clinical trials, in combination with pegylated interferon with or without ribavirin, during treatment

SMILES: COc1ccc2c(O[C@@H]3C[C@H]4C(=O)N[C@]5(C(=O)O)C[C@H]5/C=C\CCCCC[C@H](NC(=O)OC5CCCC5)C(=O)N4C3)cc(-c3csc(NC(C)C)n3)nc2c1 [BILN 2061]
- viral load in patients (hepatitis C virus [1]): effective in rapidly reducing viral loads

SMILES: CCC[C@H](NC(=O)[C@@H]1[C@H]2CCC[C@H]2CN1C(=O)[C@@H](NC(=O)[C@@H](NC(=O)c1cnccn1)C1CCCCC1)C(C)(C)C)C(=O)C(=O)NC1CC1 [VX-950]
- viral load in patients (hepatitis C virus [2]): rapidly decreased to undetectable levels
